Measurements: patent US20070117776A1, “Low Dose Therapy Of DNA Methylation Inhibitors” (priority 2005, published 2007)
Read-outs that look alike come from different tables or passages of the source.

Format: physicochemical
Method: Maintaining the solution at low temperature and buffering the drug can control degradation kinetics of aqueous solutions but the stability achieved is not sufficient to render the product stable during its entire proposed shelf life. A dry solid formulation of decitabine which is stable was achieved by lyophilization of an aqueous solution. The process of lyophilization to obtain a solid form is considered essential for maximizing the stability of the product.
A bulk solution of 5 mg/mL of decitabine was prepared during compounding. To minimize degradation during compounding of the bulk solution prior to lyophilization, the bulk solution was maintained at low temperature, and the time the drug remains in solution prior to lyophilization was minimized. Maximum solution stability was achieved by dissolving the drug in a pH 6.8-7.0 phosphate buffer solution at 0-4° C.
Based on the results, appropriate recommendations for the preparation and storage of the reconstituted and diluted solutions can be made to pharmacists and clinical practitioners. The product was reconstituted in 10 mL WFI and diluted with one of the three pre-chilled infusion fluids indicated in Table 1 and Table 2 to two different concentrations, 0.1 mg/mL and 1 mg/mL covering the entire concentration range expected to be used in the clinical setting. The diluted solutions were stored for one to ten hours in infusion bags in the refrigerator at 2-8° C. to simulate conditions prior to infusion and then removed and placed at room temperature to simulate conditions during infusion. Bags placed in the refrigerator for one hour were removed and placed at room temperature and sampled thereafter for the next three hours at room temperature (Experiment No. 1) while the bags placed in the refrigerator for ten hours were removed and sampled for the next two hours at room temperature (Experiment No. 2).
The method used to estimate degradation products is based on percent peak area measurements assuming the degradation products have a response factor of 1, with respect to decitabine.
Table 1 and Table 2 also show the pH data obtained after the preparation of the infusion, which is consistently within ±0.3 pH units of neutral pH.

[1] = 0.1 mg/mL in 0.9% NaCl, Experiment 1 (2-8° C. one hour, then room temperature), at 0 h
[2] = 0.1 mg/mL in 0.9% NaCl, Experiment 1 (2-8° C. one hour, then room temperature), at 1 h
[3] = 0.1 mg/mL in 0.9% NaCl, Experiment 1 (2-8° C. one hour, then room temperature), at 2 h
[4] = 0.1 mg/mL in 0.9% NaCl, Experiment 1 (2-8° C. one hour, then room temperature), at 3 h
[5] = 0.1 mg/mL in 0.9% NaCl, Experiment 1 (2-8° C. one hour, then room temperature), at 4 h
[6] = 0.1 mg/mL in 0.9% NaCl, Experiment 2 (2-8° C. ten hours, then room temperature), at 0 h
[7] = 0.1 mg/mL in 0.9% NaCl, Experiment 2 (2-8° C. ten hours, then room temperature), at 10 h
[8] = 0.1 mg/mL in 0.9% NaCl, Experiment 2 (2-8° C. ten hours, then room temperature), at 11 h
[9] = 0.1 mg/mL in 0.9% NaCl, Experiment 2 (2-8° C. ten hours, then room temperature), at 12 h
[10] = 0.1 mg/mL in 5% Dextrose, Experiment 1 (2-8° C. one hour, then room temperature), at 0 h
[11] = 0.1 mg/mL in 5% Dextrose, Experiment 1 (2-8° C. one hour, then room temperature), at 1 h
[12] = 0.1 mg/mL in 5% Dextrose, Experiment 1 (2-8° C. one hour, then room temperature), at 2 h
[13] = 0.1 mg/mL in 5% Dextrose, Experiment 1 (2-8° C. one hour, then room temperature), at 3 h
[14] = 0.1 mg/mL in 5% Dextrose, Experiment 1 (2-8° C. one hour, then room temperature), at 4 h
[15] = 0.1 mg/mL in 5% Dextrose, Experiment 2 (2-8° C. ten hours, then room temperature), at 0 h
[16] = 0.1 mg/mL in 5% Dextrose, Experiment 2 (2-8° C. ten hours, then room temperature), at 10 h
[17] = 0.1 mg/mL in 5% Dextrose, Experiment 2 (2-8° C. ten hours, then room temperature), at 11 h
[18] = 0.1 mg/mL in 5% Dextrose, Experiment 2 (2-8° C. ten hours, then room temperature), at 12 h
[19] = 0.1 mg/mL in Lactated Ringer's, Experiment 1 (2-8° C. one hour, then room temperature), at 0 h
[20] = 0.1 mg/mL in Lactated Ringer's, Experiment 1 (2-8° C. one hour, then room temperature), at 1 h
[21] = 0.1 mg/mL in Lactated Ringer's, Experiment 1 (2-8° C. one hour, then room temperature), at 2 h
[22] = 0.1 mg/mL in Lactated Ringer's, Experiment 1 (2-8° C. one hour, then room temperature), at 3 h
[23] = 0.1 mg/mL in Lactated Ringer's, Experiment 1 (2-8° C. one hour, then room temperature), at 4 h
[24] = 0.1 mg/mL in Lactated Ringer's, Experiment 2 (2-8° C. ten hours, then room temperature), at 0 h
[25] = 0.1 mg/mL in Lactated Ringer's, Experiment 2 (2-8° C. ten hours, then room temperature), at 10 h
[26] = 0.1 mg/mL in Lactated Ringer's, Experiment 2 (2-8° C. ten hours, then room temperature), at 11 h
[27] = 0.1 mg/mL in Lactated Ringer's, Experiment 2 (2-8° C. ten hours, then room temperature), at 12 h
[28] = about 1.0 mg/mL in 0.9% NaCl, Experiment 1 (2-8° C. one hour, then room temperature), at 0 h
[29] = about 1.0 mg/mL in 0.9% NaCl, Experiment 1 (2-8° C. one hour, then room temperature), at 1 h
[30] = about 1.0 mg/mL in 0.9% NaCl, Experiment 1 (2-8° C. one hour, then room temperature), at 2 h
[31] = about 1.0 mg/mL in 0.9% NaCl, Experiment 1 (2-8° C. one hour, then room temperature), at 3 h
[32] = about 1.0 mg/mL in 0.9% NaCl, Experiment 1 (2-8° C. one hour, then room temperature), at 4 h
[33] = about 1.0 mg/mL in 0.9% NaCl, Experiment 2 (2-8° C. ten hours, then room temperature), at 0 h
[34] = about 1.0 mg/mL in 0.9% NaCl, Experiment 2 (2-8° C. ten hours, then room temperature), at 10 h
[35] = about 1.0 mg/mL in 0.9% NaCl, Experiment 2 (2-8° C. ten hours, then room temperature), at 11 h
[36] = about 1.0 mg/mL in 0.9% NaCl, Experiment 2 (2-8° C. ten hours, then room temperature), at 12 h
[37] = about 1.0 mg/mL in 5% Dextrose, Experiment 1 (2-8° C. one hour, then room temperature), at 0 h
[38] = about 1.0 mg/mL in 5% Dextrose, Experiment 1 (2-8° C. one hour, then room temperature), at 1 h
[39] = about 1.0 mg/mL in 5% Dextrose, Experiment 1 (2-8° C. one hour, then room temperature), at 2 h
[40] = about 1.0 mg/mL in 5% Dextrose, Experiment 1 (2-8° C. one hour, then room temperature), at 3 h
[41] = about 1.0 mg/mL in 5% Dextrose, Experiment 1 (2-8° C. one hour, then room temperature), at 4 h
[42] = about 1.0 mg/mL in 5% Dextrose, Experiment 2 (2-8° C. ten hours, then room temperature), at 0 h
[43] = about 1.0 mg/mL in 5% Dextrose, Experiment 2 (2-8° C. ten hours, then room temperature), at 10 h
[44] = about 1.0 mg/mL in 5% Dextrose, Experiment 2 (2-8° C. ten hours, then room temperature), at 11 h
[45] = about 1.0 mg/mL in 5% Dextrose, Experiment 2 (2-8° C. ten hours, then room temperature), at 12 h
[46] = about 1.0 mg/mL in Lactated Ringer's, Experiment 1 (2-8° C. one hour, then room temperature), at 0 h
[47] = about 1.0 mg/mL in Lactated Ringer's, Experiment 1 (2-8° C. one hour, then room temperature), at 1 h
[48] = about 1.0 mg/mL in Lactated Ringer's, Experiment 1 (2-8° C. one hour, then room temperature), at 2 h
[49] = about 1.0 mg/mL in Lactated Ringer's, Experiment 1 (2-8° C. one hour, then room temperature), at 3 h
[50] = about 1.0 mg/mL in Lactated Ringer's, Experiment 1 (2-8° C. one hour, then room temperature), at 4 h
[51] = about 1.0 mg/mL in Lactated Ringer's, Experiment 2 (2-8° C. ten hours, then room temperature), at 0 h
[52] = about 1.0 mg/mL in Lactated Ringer's, Experiment 2 (2-8° C. ten hours, then room temperature), at 10 h
[53] = about 1.0 mg/mL in Lactated Ringer's, Experiment 2 (2-8° C. ten hours, then room temperature), at 11 h
[54] = about 1.0 mg/mL in Lactated Ringer's, Experiment 2 (2-8° C. ten hours, then room temperature), at 12 h

- degradation in aqueous solution: degrades rapidly
- pH after the preparation of the infusion (0.1 mg/mL in 0.9% NaCl): 6.7
- Decitabine Content [1]: 97.5%
- Total Impurities [1]: (2.5%)
- Decitabine Content [2]: 96.9%
- Total Impurities [2]: (3.2%)
- Decitabine Content [3]: 95.7%
- Total Impurities [3]: (4.3%)
- Decitabine Content [4]: 94.1%
- Total Impurities [4]: (6.0%)
- Decitabine Content [5]: 92.5%
- Total Impurities [5]: (7.7%)
- Decitabine Content [6]: 97.8%
- Total Impurities [6]: (2.2%)
- Decitabine Content [7]: 93.4%
- Total Impurities [7]: (6.7%)
- Decitabine Content [8]: 92.3%
- Total Impurities [8]: (7.7%)
- Decitabine Content [9]: 90.8%
- Total Impurities [9]: (9.2%)
- pH after the preparation of the infusion (0.1 mg/mL in 5% Dextrose): 6.9
- Decitabine Content [10]: 97.4%
- Total Impurities [10]: (2.6%)
- Decitabine Content [11]: 97.2%
- Total Impurities [11]: (2.7%)
- Decitabine Content [12]: 96.4%
- Total Impurities [12]: (3.6%)
- Decitabine Content [13]: 94.9%
- Total Impurities [13]: (5.1%)
- Decitabine Content [14]: 93.6%
- Total Impurities [14]: (6.4%)
- Decitabine Content [15]: 98.2%
- Total Impurities [15]: (1.9%)
- Decitabine Content [16]: 94.9%
- Total Impurities [16]: (5.2%)
- Decitabine Content [17]: 94.5%
- Total Impurities [17]: (5.6%)
- Decitabine Content [18]: 93.3%
- Total Impurities [18]: (6.7%)
- pH after the preparation of the infusion (0.1 mg/mL in Lactated Ringer's): 6.7
- Decitabine Content [19]: 98.3%
- Total Impurities [19]: (1.7%)
- Decitabine Content [20]: 98.1%
- Total Impurities [20]: (1.9%)
- Decitabine Content [21]: 97.0%
- Total Impurities [21]: (3.0%)
- Decitabine Content [22]: 95.9%
- Total Impurities [22]: (4.1%)
- Decitabine Content [23]: 94.9%
- Total Impurities [23]: (5.2%)
- Decitabine Content [24]: 98.0%
- Total Impurities [24]: (2.1%)
- Decitabine Content [25]: 93.4%
- Total Impurities [25]: (6.7%)
- Decitabine Content [26]: 92.6%
- Total Impurities [26]: (7.4%)
- Decitabine Content [27]: 91.8%
- Total Impurities [27]: (8.3%)
- pH of maximum solution stability (5 mg/mL): 6.8-7.0
- pH deviation from neutral pH after the preparation of the infusion (Table 1 and Table 2 solutions): ≤ 0.3 pH units
- pH after the preparation of the infusion (about 1.0 mg/mL in 0.9% NaCl): 6.7
- Decitabine Content [28]: 98.0%
- Total Impurities [28]: (2.1%)
- Decitabine Content [29]: 96.8%
- Total Impurities [29]: (3.3%)
- Decitabine Content [30]: 94.8%
- Total Impurities [30]: (5.2%)
- Decitabine Content [31]: 92.8%
- Total Impurities [31]: (7.3%)
- Decitabine Content [32]: 91.1%
- Total Impurities [32]: (9.0%)
- Decitabine Content [33]: 97.4%
- Total Impurities [33]: (2.7%)
- Decitabine Content [34]: 93.4%
- Total Impurities [34]: (6.7%)
- Decitabine Content [35]: 92.5%
- Total Impurities [35]: (7.6%)
- Decitabine Content [36]: 90.8%
- Total Impurities [36]: (9.2%)
- pH after the preparation of the infusion (about 1.0 mg/mL in 5% Dextrose): 7.1
- Decitabine Content [37]: 98.0%
- Total Impurities [37]: (2.0%)
- Decitabine Content [38]: 97.0%
- Total Impurities [38]: (3.1%)
- Decitabine Content [39]: 95.6%
- Total Impurities [39]: (4.4%)
- Decitabine Content [40]: 93.7%
- Total Impurities [40]: (6.4%)
- Decitabine Content [41]: 91.9%
- Total Impurities [41]: (8.1%)
- Decitabine Content [42]: 97.7%
- Total Impurities [42]: (2.4%)
- Decitabine Content [43]: 94.5%
- Total Impurities [43]: (5.5%)
- Decitabine Content [44]: 93.9%
- Total Impurities [44]: (6.1%)
- Decitabine Content [45]: 93.0%
- Total Impurities [45]: (7.1%)
- pH after the preparation of the infusion (about 1.0 mg/mL in Lactated Ringer's): 6.8
- Decitabine Content [46]: 98.1%
- Total Impurities [46]: (2.0%)
- Decitabine Content [47]: 97.3%
- Total Impurities [47]: (2.7%)
- Decitabine Content [48]: 96.2%
- Total Impurities [48]: (3.8%)
- Decitabine Content [49]: 95.1%
- Total Impurities [49]: (4.9%)
- Decitabine Content [50]: 93.7%
- Total Impurities [50]: (6.4%)
- Decitabine Content [51]: 98.0%
- Total Impurities [51]: (2.1%)
- Decitabine Content [52]: 94.1%
- Total Impurities [52]: (5.9%)
- Decitabine Content [53]: 93.3%
- Total Impurities [53]: (6.8%)
- Decitabine Content [54]: 91.8%
- Total Impurities [54]: (8.2%)
- visual inspection of solutions (all reconstituted and diluted solutions): clear and colorless
- drug content in the infusion solution during infusion (infusions prepared and stored as instructed): above 90%
SMILES: Nc1ncn([C@H]2C[C@H](O)[C@@H](CO)O2)c(=O)n1 [Decitabine, 4-amino-1-(2-deoxy-β-D-erythro-pentofuranosyl)-1,3,5-triazin-2(1H)-one]
